Laboratory results published in paper PMC9127232, “Wound Healing Properties of Jasione montana Extracts and Their Main Secondary Metabolites” (Frontiers in Pharmacology, 2022).
Where “and” joins values, the source holds several entries; their conditions need not be identical. Equal entries are not always repeated. Entries after “also recorded” stand apart in the source; their conditions may differ.

How the values were obtained:
[1] = DPPH radical-scavenging assay; details: for DPPH, IC50: 30 min, absorbance 517 nm, mean ± SD; for antiradical potential in the DPPH method compared with Trolox: vs positive control Trolox IC50 58.6 ± 0.1 μg/mL
Method: All extracts (JM1–JM6) and main components of the tested extracts (9, 12, and 22) were isolated and identified as previously described ([Juszczak et al., 2021]). A total of 130 μL of sample solution at various concentrations was mixed with 70 μL of DPPH (0.2 mg/mL) in a 96-well plate. Then, the reaction mixture was incubated in the dark at room temperature. After 30 min, the absorbance was recorded at 517 nm using a microplate reader (BioTek Instruments microplate spectrophotometer EPOCH 2, Oxfordshire, United Kingdom). A blank solution was prepared by mixing methanol and DPPH solution. Trolox was used as a positive control. The experiment was performed in triplicate. RSA(%)=(C-S)/C×100% where C is the negative control and S is the sample. Concentration of the tested samples, which scavenges 50% of free radicals present in the solution (IC50), was calculated.

[2] = Ferric reducing antioxidant potential (FRAP); details: for FRAP: 1 h at 37°C, 594 nm
Method: Determination of the ferric reducing antioxidant potential (FRAP) was performed using a ferric reducing antioxidant power assay kit. Ten microliters of each sample (JM1–JM6, 9, 12, 22) was mixed with 190 µL of supplied reaction mix (FRAP assay buffer, FeCl3 solution, FRAP probe). The absorbance was measured after 1 h of incubation at 37°C at 594 nm using a microplate reader. A blank solution contained 10 µL of MeOH instead of extract/compound solution. For further calculations, the ferrous standard curve was evaluated. The values are given as mM ferrous equivalents. All tests were executed in triplicate.

[3] = molecular target: porcine pancreatic elastase (Sus scrofa, UniProt P00772); assay: Elastase inhibitory activity; assay type: biochemical; details: for anti-elastase activity (in words): extracts 100–600 μg/mL, compounds 10–200 μg/mL
Chain of porcine pancreatic elastase (P00772 27-266): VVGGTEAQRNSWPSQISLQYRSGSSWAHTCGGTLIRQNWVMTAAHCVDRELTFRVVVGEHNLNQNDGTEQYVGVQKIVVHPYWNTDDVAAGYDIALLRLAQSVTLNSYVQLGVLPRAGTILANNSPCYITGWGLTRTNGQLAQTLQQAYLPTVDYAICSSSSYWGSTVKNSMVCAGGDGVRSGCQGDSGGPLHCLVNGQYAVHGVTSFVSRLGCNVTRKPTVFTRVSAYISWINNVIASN
Method: The measurement of elastase inhibition was modified slightly according to a previous method ([Wittenauer et al., 2015]). The procedure was performed in 100 mM Tris buffer (pH = 8.0). Briefly, 100 µL of extracts (JM1–JM6) (100–600 μg/mL) or compounds (9, 12, and 22) (10–200 μg/mL) and 100 µL of Tris buffer were mixed with 25 µL of porcine pancreatic elastase solution (0.05 mg/mL). Then, the mixtures were preincubated at 25°C for 5 min, and 70 µL of AAAPVN (0.4 mg/mL) was added. After another 15 min of incubation, the release of p-nitroaniline was monitored at 410 nm using a microplate reader. A blank solution was prepared by using buffer instead of sample solution. […] The calculations were performed as follows: ElInh(% )=(C-S)/C×100% where C is the negative control and S is the sample.

[4] = tested on: normal human dermal fibroblast cell line (PCS-201-012); assay: Scratch proliferation and migration assay; assay type: cell-based; details: 24 h; for cell migration into the injured area: up to 100 μg/mL
Method: The normal human dermal fibroblast cell line (PCS-201-012) was cultured in DMEM blended with 10% fetal bovine serum (FBS), 10 μg/mL streptomycin, and 10 units/mol penicillin. The cells were cultured in 5% CO2 and fully humidified at 37°C. All tested compounds were dissolved at a final vehicle (DMSO) concentration of not more than 0.5% (v/v). Cells cultured in drug-free DMEM were used as controls, and cells treated with DMSO alone were used as solvent controls. All extracts (JM1-JM6) and the main components of the tested extracts (9, 12, and 22) were analyzed at the following concentrations: 10, 25, 50, 100, 200, and 300 μg/mL. The in vitro wound healing activity of J. montana extracts and isolated compounds was determined by a scratch assay, which is a model of a wound in which monolayer skin cells, including fibroblasts, react to the disruption of contact between cells and stimulate proliferation and migration by modulating the concentration of growth factors and cytokines at the edge wounds ([Liang et al., 2007]). For this purpose, fibroblast cells were seeded at a density of 2.5 × 10^5 in 6-well cell culture dishes and incubated for 24 h at 37°C. After incubation, a linear scratch was made with a universal sterile 200 μL pipette tip. Cells were incubated with the tested extracts (JM1-JM6) and compounds (9, 12, and 22) at concentrations of 10, 25, 50, 100, 200 and 300 μg/mL for 24 h at 37°C. Allantoin, a plant-derived commercialized drug, was used as the positive control at a concentration of 50 μg/mL to judge the rate of cell migration ([[…] et al., 2020]). After incubation, the migrated cells were washed twice with PBS and observed under a phase contrast microscope. The progress of migration, proliferation and closing of the wound before and after treatment with the tested samples was monitored by imaging with a phase contrast microscope (Nikon Eclipse Ti, Tokyo, Japan) at × 100 magnification and NIS-Elements 3.0 imaging software (Nikon Instruments Inc., Melville, NY, United States).

[5] = tested on: collagen type I in fibroblast cells (PCS-201-012); assay: Collagen type I biosynthesis by flow cytometry; assay type: cell-based, human; details: for collagen type I content, median fluorescence intensity (MFI): 24 h
Method: The normal human dermal fibroblast cell line (PCS-201-012) was cultured in DMEM blended with 10% fetal bovine serum (FBS), 10 μg/mL streptomycin, and 10 units/mol penicillin. The cells were cultured in 5% CO2 and fully humidified at 37°C. All tested compounds were dissolved at a final vehicle (DMSO) concentration of not more than 0.5% (v/v). Cells cultured in drug-free DMEM were used as controls, and cells treated with DMSO alone were used as solvent controls. All extracts (JM1–JM6) and the main components of the tested extracts (9, 12, and 22) were analyzed at the following concentrations: 10, 25, 50, 100, 200, and 300 μg/mL. The effect of the tested extracts and fractions (JM1–JM6), as well as their main compounds (9, 12, and 22) on collagen type I biosynthesis was determined using a method of cytometric staining of the surface anti-collagen type I according to the manufacturer’s protocols. Fibroblasts were incubated for 24 h at 37°C with the test samples at concentrations of 10, 25, 50, 100, 200, and 300 μg/mL. Allantoin (50 μg/mL) was used as a positive control. After incubation, fibroblasts were washed with PBS, trypsinized, resuspended in DMEM and centrifuged (1,200 rpm, 10 min, 4°C). The supernatant was removed, and the cells were washed with 2 mL of stain buffer. Then, the cells were incubated for 30 min on ice with 100 µL of stain buffer and 1 µL of antibody. After complete incubation, 2 mL of stain buffer was added. After consecutive centrifugation (1,200 rpm, 10 min, 4°C), the supernatant was removed, the cells were resuspended in 300 µL of buffer and then immediately subjected to analysis on a flow cytometer (BD FACSCanto II flow cytometer, San Jose, CA, United States) calibrated with BD Cytometer Setup and Tracking beads (BD Biosciences, San Diego, CA, United States). The median fluorescence intensity was calculated using FACSDiva software (BD Biosciences Systems, San Jose, CA, United States) and analyzed by FCS Express 7 software (DeNovo Software, Pasadena, CA, United States).

[6] = tested on: IL-8 in fibroblast cells (PCS-201-012); assay: Cytometric Bead Array, IL-8 secretion; assay type: cell-based, human; details: 24 h
Method: (§1) The normal human dermal fibroblast cell line (PCS-201-012) was cultured in DMEM blended with 10% fetal bovine serum (FBS), 10 μg/mL streptomycin, and 10 units/mol penicillin. The cells were cultured in 5% CO2 and fully humidified at 37°C. All tested compounds were dissolved at a final vehicle (DMSO) concentration of not more than 0.5% (v/v). Cells cultured in drug-free DMEM were used as controls, and cells treated with DMSO alone were used as solvent controls. All extracts (JM1–JM6) and the main components of the tested extracts (9, 12, and 22) were analyzed at the following concentrations: 10, 25, 50, 100, 200, and 300 μg/mL. The effect of the tested extracts and fractions (JM1–JM6) as well as 9, 12, and 22 on cytokine (IL-1β, IL-6 IL-8, IL-10, IL-12p70 and TNF) secretion was determined using the Cytometric Bead Array (CBA) Human Inflammatory Cytokine Kit according to the manufacturer’s protocols. After 24 h of incubation with the test samples at concentrations of 10, 25, 50, 100, 200, and 300 μg/mL, fibroblast cells were washed with PBS, trypsinized, resuspended in DMEM and centrifuged (1,200 rpm, 10 min, 4°C). The supernatant was then replaced with 50 μL of assay diluent with the addition of 50 μL of assay beads and 50 μL of PE-labeled antibodies (detection reagent) from the human inflammatory cytokine kit. Incubation was performed for 3 h at room temperature without daylight, after which the fibroblast cells were washed and centrifuged (1,200 rpm, 5 min, 4°C). The cell pellet was resuspended in 300 μL of wash buffer and then immediately subjected to analysis by FCAP Array v3 software on a BD FACSCanto II flow cytometer (both from BD Biosciences Systems, San Jose, CA, United States) calibrated with BD Cytometer Setup and Tracking beads (BD Biosciences, San Diego, CA, United States).

[7] = tested on: IL-6 in fibroblast cells (PCS-201-012); assay: Cytometric Bead Array, IL-6 secretion; assay type: cell-based, human; details: 24 h
Method: as §1

dermal fibroblast cells = tested on: dermal fibroblast cells; design: method as in Juszczak et al., 2021; details: ref Juszczak et al., 2021; cited from earlier work
[8] = tested on: IL-1β in fibroblast cells (PCS-201-012); assay: Cytometric Bead Array, IL-1β secretion; assay type: cell-based, human; details: for IL-1β: BSR = below the standard range (lower than detection limit)
Method: as §1

| Compound | DPPH, IC50 [1] | antiradical potential in the DPPH method compared with Trolox [1] | FRAP / reducing power [2] [mM Fe^2+/mL] | FRAP [2] [mM Fe^2+eq/mL] | anti-elastase activity (in words) [3] | cell migration into the injured area [4] | collagen type I content, median fluorescence intensity (MFI) ([5]; 300 μg/mL, control 1,507 ± 9.2) | IL-8 levels (in words) ([6]; 100–300 μg/mL) | concentration at which the highest increase in IL-6 secretion occurred [7] [µg/mL] | cytotoxicity on dermal fibroblast cells (in words) (dermal fibroblast cells) | other results |
| --- | --- | --- | --- | --- | --- | --- | --- | --- | --- | --- | --- |
| O=c1cc(-c2ccc(O)c(O)c2)oc2cc(O[C@@H]3O[C@H](CO)[C@@H](O)[C@H](O)[C@H]3O)cc(O)c12 [Compound 12, luteolin 7-O-β-D-glucoside] | 16.6 ± 0.7 mg/L and 16.59 ± 0.7 mg/L | stronger antiradical potential | 51.9 ± 0.5 | 51.88 ± 0.53 | no significant inhibitory activity; also recorded: not active | significantly increased | 1717 ± 10.6 | reduced IL-8 levels | 100 | did not show strong cytotoxicity | – |
| O=c1cc(-c2ccc(O)c(O)c2)oc2cc(O[C@@H]3O[C@H](CO)[C@@H](O)[C@H](O)[C@H]3O[C@@H]3OC[C@@H](O)[C@H](O)[C@H]3O)cc(O)c12 [Compound 9, luteolin 7-O-β-D-xylosyl-(1-2)-β-D-glucoside] | 20.34 ± 0.8 mg/L | stronger antiradical potential | – | 60.59 ± 0.46 | no significant inhibitory activity; also recorded: not active | significantly increased | 1763 ± 58 | reduced IL-8 levels | 100 | – | effectiveness in the scratch test ([4]; 50 μg/mL, comparable with allantoin 50 μg/mL): most effective; IL-8 levels (in words) ([6]; 10–100 μg/mL): significant increase |
| NC(=O)NC1NC(=O)NC1=O (centres unmarked) [allantoin, reference compound] | – | – | – | – | – | – | – | – | – | – | collagen type I content, median fluorescence intensity (MFI) ([5]; 50 μg/mL, control 1822 ± 62.2): 1,494 ± 2.8; IL-1β levels (in words) ([8]; 50 μg/mL, 24 h, positive control): stimulation of proinflammatory IL-1β levels; IL-8 expression (in words) ([6]; 50 μg/mL, positive control): decrease in IL-8 expression; IL-6 (in words) ([7]; 50 μg/mL, positive control): upregulation of IL-6 |

The next lines start with results.

| DPPH, IC50 [1] | Compound | antiradical potential in the DPPH method compared with Trolox [1] | FRAP / reducing power [2] [mM Fe^2+/mL] | FRAP [2] [mM Fe^2+eq/mL] | anti-elastase activity (in words) [3] | cell migration into the injured area [4] | collagen type I content, median fluorescence intensity (MFI) ([5]; 300 μg/mL, control 1,507 ± 9.2) | IL-8 levels (in words) ([6]; 100–300 μg/mL) | concentration at which the highest increase in IL-6 secretion occurred [7] [µg/mL] | cytotoxicity on dermal fibroblast cells (in words) (dermal fibroblast cells) | other results |
| --- | --- | --- | --- | --- | --- | --- | --- | --- | --- | --- | --- |
| 10.6 ± 0.7 mg/L and 10.65 ± 0.7 mg/L | O=c1cc(-c2ccc(O)c(O)c2)oc2cc(O)cc(O)c12 [Compound 22, 5,7,3',4'-tetrahydroxyflavone] | stronger antiradical potential | 60.59 ± 0.5 | 51.81 ± 0.78 | – | – | – | – | – | toxicity at the higher concentrations tested | IC50 ([3]; Tris buffer pH 8.0, substrate AAAPVN, 410 nm): 139 µM; stimulation of fibroblast migration ([4]; only at 10 μg/mL): capable of stimulating cells only at a low concentration; collagen content in fibroblast cells (in words) ([5]; 10 μg/mL): decrease in collagen content; IL-1β level ([8]; 100 μg/mL, 24 h, control 13.4 ± 5.6 pg/mL): 1.7 ± 1.1 pg/mL; IL-1β ([8]; 200 μg/mL): BSR; IL-1β ([8]; 300 μg/mL): BSR; IL-1β expression (in words) ([8]; 200–300 μg/mL, 24 h): below the sensitivity of the method; secretion of IL-1β (in words) ([8]; all tested concentrations 10–300 μg/mL, 24 h): highest decrease; IL-8 level ([6]; 300 μg/mL, control 8,396.8 ± 2,771.1 pg/mL): 60.8 ± 8 pg/mL; IL-8 expression (in words) ([6]; 10–300 μg/mL): decrease in its expression was most pronounced; IL-6 expression levels (in words) ([7]; 10–300 μg/mL, vs untreated control): dose-dependent decrease |
| 58.6 ± 0.1 mg/L | Cc1c(C)c2c(c(C)c1O)CCC(C)(C(=O)O)O2 (centres unmarked) [Trolox, reference compound] | – | – | – | – | – | – | – | – | – | – |
